Like-named read-outs stand apart in the source and are kept apart here. Where a SMILES comes first, the peptide text is derived from it. Bridges are numbered along the chain shown (N, C = ends). [ ]: non-standard residue; d: D form. R8 = C=CCCCCCC[C@@](C)(N)C(=O)O; S5 = C=CCCC[C@](C)(N)C(=O)O
Columns and labels:
HIV-1 CA = target: T1, HIV-1 CA (Human immunodeficiency virus type 1 group M subtype B, UniProt P12493); experiment: Turbidity-based in vitro CA assembly assay; type: biochemical; conditions: turbidity at 350 nm; for Effect on CA assembly, turbidity (in words): 50 mM NaPO4 pH 8.0; for initial rate of CA assembly: compound:CA ratio 2:1, mean ± standard deviation from three experiments, DMSO control 216 ± 6.23
T1 construct: Wild-type HIV-1 CA was overexpressed and purified as previously described; made in house
Protocol: The ability of stapled peptides to disrupt CA-CA interactions was also assessed using a turbidity-based in vitro CA assembly assay. This assay is based on the observation that the turbidity of a CA-containing solution increases in proportion to the extent of assembly.
Wild-type HIV-1 CA was overexpressed and purified as previously described. […] Turbidity assays were carried out in triplicate using a Beckman spectrophotometer at a wavelength of 350 nm to monitor HIV-1 in vitro assembly conducted at ambient temperatures. Protein samples were prepared in an assembly buffer [50 mM NaPO4 pH 8.0]. In vitro assembly reactions were prepared with 250 μl of assembly buffer containing 60 μM protein. To catalyze CA assembly 250 μl of an assembly buffer containing 5M NaCl was added. The solution was mixed by agitation and transferred a cuvette for a total delay of 20 seconds. Assembly was monitored every 10 sec for the first min and every min thereafter for a total 10 min. Assembly reactions with stapled peptides were incubated in the assembly buffer for 10 min and then centrifuged for 1 min to separate any insoluble fractions before catalyzing assembly.

HIV-1 pNL4-3 = experiment: Virus assembly and release assay, Gag processing; type: cell-based; conditions: 293T cells transfected with pNL4-3, peptide for 16–20 h, ratio of Pr55Gag to p24
Protocol: This inhibition was specific to HIV-1 as the release of another lentivirus, equine infectious anemia virus (EIAV), was not inhibited. In this study we investigated whether i,i + 7 stapled CAI-derived peptides have any effect on virus release. 293T cells were transfected with the full-length HIV-1 molecular clone pNL4-3, treated with stapled peptides for 16–20 h, and metabolically labeled with [^35S]Met/Cys. The cell- and virus-associated proteins were immunoprecipitated with HIV-Ig.
Figure 6 i + 7 stapled peptides have no effect on HIV-1 release, but impair Gag processing. […] Cells were metabolically labeled with [^35S]Met/Cys for 2 h. Cells were lysed and virions were collected by ultracentrifugation. Cell and virus lysates were immunoprecipitated with HIV-Ig and subjected to SDS-PAGE. Protein band intensities were quantified by phosphorimager analysis, and HIV-1 release was calculated as the amount of virion-associated p24 relative to total (cell- plus virion-associated) Gag. (b) Accumulation of unprocessed Gag in cells was measured by calculating the ratio of Pr55^Gag to p24 in cells. P values were calculated by Student’s t-test, with P < 0.05 considered significant. N = 3, ± SD.
293T cells, plated at 3 × 10^5 cells/well in 12 well plates, were transfected with the HIV-1 molecular clone pNL4-3 [69]. […] One day posttransfection, cells were metabolically labeled with [^35S]Met/Cys for 2 h. The labeled virions were pelleted in an ultracentrifuge, and the virus and cell lysates were immunoprecipitated with pooled sera from HIV-1-infected patients (HIV-Ig, obtained from the ARP) and subjected to SDS-PAGE. Protein band intensities were quantified by phosphorimager analysis, and virus release was calculated as the amount of virion-associated Gag as a fraction of total (cell- plus virion-associated) Gag synthesized during the metabolic labeling period. Accumulation of Pr55^Gag in cells was measured by calculating the ratio of Pr55^Gag to p24 (CA).

HIV-1 pNL4-3 (WT) = type: cell-based
WT HIV-1 (NL4-3) = type: cell-based
[1] = tested on: HIV-1 V120Q/A327P Env mutant; type: cell-based
WT NL4-3 [2] = experiment: Spreading virus replication in Jurkat T-cell line, RT activity, WT; type: cell-based, HIV-1; conditions: Jurkat cells transfected with pNL4-3 (WT), 37.5 μM peptide
WT NL4-3 [3] = experiment: Virus replication in PBMC, WT; type: cell-based, HIV-1; conditions: PBMC from three donors, 30 μM peptide, RT activity
V120Q/A327P mutant = experiment: Virus replication in PBMC, Env mutant; type: cell-based, HIV-1; conditions: PBMC from three donors, 30 μM peptide, RT activity
[4] = tested on: N-terminal and C-terminal V3 loop peptides; experiment: ITC binding to N-terminal and C-terminal V3 loop peptides; set-up: species or system HIV-1; conditions: overlapping 15-mer V3 peptides
Protocol: (§1) We also used ITC to measure the binding affinity of the stapled peptides to full-length cyclic V3 loop peptide.
(§2) Full-length V3 peptide (Cat# 1840), cyclic V3 peptide (Cat# 1837) and 15-mer overlapping V3 peptides (Cat# 1832, 6282, 6283, 6284, 6285, 6287, 6288, 6289, 6290 and 6291, for amino acid sequence see HIV-1 Subtype B (MN) Env Peptides - Complete Set Cat# 6451) were obtained through the NIH ARP.
(§3) For forward titration, 90 μM full-length V3 peptide, full-length cyclic V3 peptide or 90 μM 15-mer V3 peptides were titrated into 4.5 μM of stapled or linear peptides. Reference measurements were performed by titrating 90 μM full-length V3 peptide, full-length cyclic V3 peptide or 15-mer V3 peptide into buffer without peptide. For reverse titration, 90 μM stapled peptide was titrated into 4.5 μM full-length V3 peptide, full-length cyclic V3 peptide or […]. Reference measurements were performed by titrating 90 μM stapled peptide into buffer without peptide.

[5] = target: tip of V3 loop (15-mer V3 tip peptide); experiment: ITC binding to 15-mer V3 tip peptide; set-up: species or system HIV-1; conditions: 90 μM 15-mer V3 tip peptide titrated into 4.5 μM peptide, single-site model
Protocol: as §1, §2, §3

[6] = 50 μM peptide during 2 h infection, TZM-bl cells, luciferase two days post-infection

In the case of “Ac-IRQGPKEPFRDYVDR-NH2 [NYAD-401, reference compound]”, the “Effect on CA assembly, turbidity (in words)” value (“Effect on CA assembly” for short) (HIV-1 CA) is reported as “no observable effect on CA assembly” and the “initial rate of CA assembly” value (HIV-1 CA) is reported as 223 ± 32.5 mOD/min.

In the case of “Ac-RRF-R8-ELLDYY-S5-ESGS-amide (sidechain bridge or staple) [NYAD-62]”, the “CC 50 (μM ± SD) in MT-2” value (MT-2 cells) is reported as 15.4 ± 0.2 µM.

“ISF-R8-ELLNYY-S5-ESGS-amide (sidechain bridge or staple) [NYAD-57]” was tested, and the “CC 50 (μM ± SD) in MT-2” value (MT-2 cells) was 39.6 ± 4.4 µM.

With “Ac-ISF-R8-EWLQYY-S5-R-amide (sidechain bridge or staple) [NYAD-33]” the “CC 50 (μM ± SD) in MT-2” value (MT-2 cells) was 9.2 ± 0.26 µM.

With “Ac-R-R8-FAELLD-S5-YGESGS-amide (sidechain bridge or staple) [NYAD-63]” the “CC 50 (μM ± SD) in MT-2” value (MT-2 cells) was over 113 µM.

For “Ac-ISF-R8-ELEDYY-S5-ESGS (sidechain bridge or staple) [NYAD-43]”, the “CC 50 (μM ± SD) in MT-2” value (MT-2 cells) was over 106.6 µM.

“Ac-RSF-R8-RLLDYY-S5-ESGS-amide (sidechain bridge or staple) [NYAD-61]” was tested, and the “CC 50 (μM ± SD) in MT-2” value (MT-2 cells) was 31.7 ± 1.4 µM.

With Ac-ISFDELLDYYGESGS [NYAD-41] the “% FAM” value (293T cells; FACS, 293T cells, 4 μM FAM-conjugated peptide, 20 h at 37°C, serum-free media, 0.25% Trypsin-EDTA 30 min) was 1.43%.

`CC[C@H](C)[C@H](NC(C)=O)C(=O)N[C@@H](CO)C(=O)N[C@@H](Cc1ccccc1)C(=O)N[C@]1(C)CCCCCCC=CCCC[C@@](C)(C(=O)N[C@@H](CCC(=O)O)C(=O)N[C@@H](CC(=O)O)C(=O)N[C@@H](CCC(=O)O)C(N)=O)NC(=O)[C@H](Cc2ccc(O)cc2)NC(=O)[C@H](C)NC(=O)[C@H](CCC(N)=O)NC(=O)[C@H](CC(C)C)NC(=O)[C@H](Cc2c[nH]c3ccccc23)NC(=O)[C@H](CCC(=O)O)NC1=O` [NYAD-67] (Ac-ISF[R8]EWLQAY[S5]EDE-NH2; staple 4-11) was tested, and the “Effect on CA assembly” value (HIV-1 CA) was “did not influence the rate or extent of CA assembly”, the “initial rate of CA assembly” value (HIV-1 CA) was 205 ± 18.89 mOD/min and the “Accumulation of cell-associated Pr55Gag (in words)” value (HIV-1 pNL4-3) was “modest accumulation of cell-associated Pr55^Gag”. The “reduction in infectivity of virions produced from treated cells” value (HIV-1 pNL4-3 (WT)) was “two-log reduction in infectivity”, the “fold reduction of virus infectivity, WT” value (WT HIV-1 (NL4-3)) was over 40 fold and the “fold reduction of virus infectivity, V120Q/A327P double mutant” value [1] was ~ 2.5 fold. For the same molecule, the “virus replication (in words)” value (WT NL4-3 [2]) was “completely blocked”, the “virus replication (in words)” value (WT NL4-3 [3]) was “strongly inhibited replication of WT NL4-3 in PBMC” and the “virus replication (in words)” value (V120Q/A327P mutant) was “showed some antiviral activity against the V120Q/A327P mutant”. For the same molecule, the “binding to N-terminal and C-terminal V3 loop peptides (in words)” value [4] was “neither N-terminal nor C-terminal V3 loop peptides bind”, the Kd [5] was 8.92 ± 1.8 µM and the “% toxicity at that dose (number in parenthesis)” value (MT-2 cells) was 0%. The “CC 50 (μM ± SD) in MT-2” value (MT-2 cells) was over 107.4 µM and the “Cell penetration (in words)” value (293T cells) was “penetrate cells less efficiently than NYAD-1”.

For “Ac-SK-R8-ELLDYY-S5-ESGS-amide (sidechain bridge or staple) [NYAD-64]”, the “CC 50 (μM ± SD) in MT-2” value (MT-2 cells) was over 109 µM.

With “Ac-ISF-R8-ELLRYY-S5-R-amide (sidechain bridge or staple) [NYAD-56]” the “CC 50 (μM ± SD) in MT-2” value (MT-2 cells) was 16.4 ± 1.2 µM.

“Ac-RSFE-R8-LLDYYG-S5-SGS-amide (sidechain bridge or staple) [NYAD-65]” was tested, and the “CC 50 (μM ± SD) in MT-2” value (MT-2 cells) was over 116 µM.

“IRF-R8-QLLNYY-S5-ESGS-amide (sidechain bridge or staple) [NYAD-58]” was tested, and the “CC 50 (μM ± SD) in MT-2” value (MT-2 cells) was 14.9 ± 1 µM.

For `CC[C@H](C)[C@H](NC(C)=O)C(=O)N[C@@H](CO)C(=O)N[C@@H](Cc1ccccc1)C(=O)N[C@]1(C)CCCCCCC=CCCC[C@@](C)(C(=O)N[C@@H](CCC(=O)O)C(=O)N[C@@H](CC(=O)O)C(N)=O)NC(=O)[C@H](Cc2ccc(O)cc2)NC(=O)[C@H](Cc2ccc(O)cc2)NC(=O)[C@H](CC(=O)O)NC(=O)[C@H](CC(C)C)NC(=O)[C@H](CC(C)C)NC(=O)[C@H](CCC(=O)O)NC1=O` [NYAD-66] (Ac-ISF[R8]ELLDYY[S5]ED-NH2; staple 4-11), the “Effect on CA assembly” value (HIV-1 CA) was “reduced the extent of CA assembly in a dose-dependent manner”, the “initial rate of CA assembly” value (HIV-1 CA) was 166 ± 18.91 mOD/min and the “Accumulation of cell-associated Pr55Gag (in words)” value (HIV-1 pNL4-3) was “modest accumulation of cell-associated Pr55^Gag”. For the same molecule, the “reduction in infectivity of virions produced from treated cells” value (HIV-1 pNL4-3 (WT); 293T producer cells treated with 50 μM peptide for two days, RT-normalized virus on TZM-bl, luciferase) was “four-fold”, the “fold reduction of virus infectivity, WT” value (WT HIV-1 (NL4-3); [6]) was “around 3 fold” and the “fold reduction of virus infectivity, V120Q/A327P double mutant” value [1, 6] was “less than 2 fold”. The “virus replication (in words)” value (WT NL4-3 [2]) was “significantly delayed”, the “virus replication (in words)” value (WT NL4-3 [3]) was “strongly inhibited replication of WT NL4-3 in PBMC” and the “virus replication (in words)” value (V120Q/A327P mutant) was “showed some antiviral activity against the V120Q/A327P mutant”. The “% toxicity at that dose (number in parenthesis)” value (MT-2 cells) was 0%, the “CC 50 (μM ± SD) in MT-2” value (MT-2 cells) was over 115 µM and the “Cell penetration (in words)” value (293T cells) was “penetrate cells less efficiently than NYAD-1”.

In the case of “Ac-ISF-R8-ELLDYY-S5-EKSGSKD-amide (sidechain bridge or staple) [NYAD-55]”, the “CC 50 (μM ± SD) in MT-2” value (MT-2 cells) is reported as over 89.7 µM.

For “Ac-ISF-R8-QLLDYY-S5-QSGSK-amide (sidechain bridge or staple) [NYAD-46]”, the “CC 50 (μM ± SD) in MT-2” value (MT-2 cells) was 10.6 ± 0.6 µM.

In the case of “Ac-ISF-R8-ELLDYY-S5-ESGSKKK-amide (sidechain bridge or staple) [NYAD-44]”, the “CC 50 (μM ± SD) in MT-2” value (MT-2 cells) is reported as 17.2 ± 1.4 µM.

— paper PMC3842668, “Dual-acting stapled peptides target both HIV-1 entry and assembly” (Retrovirology, 2013)
